# Test results reported in patent publication US20250040539A1, “COMPOSITION COMPRISING AN ANTIMICROBIAL AGENT AND A CARBOXAMIDE” (BASF SE, priority 2021, published 2025).
# Columns and labels:
# Format in all cases: cell-based
# [1] = test system: fungal mix (including yeasts and molds): Aspergillus brasiliensis DSM 1988, Rhodotorula mucilaginosa DSM 13621, Yarrowia lipolytica DSM 8218; test: Preservative activity of a basic composition (10% PG in water, pH 7) with 2-phenoxyethanol against fungal contamination (Example 1.1); conditions: 25° C.; for d21 [CFU/ml]: day 21
# Protocol: An aqueous composition of pH 7 comprising 10% by weight of propyleneglycol (PG) as organic solvent, 0.36% by weight of 2-phenoxyethanol (PE) as antimicrobial and 0.04% by weight of the amide listed in the below table was tested for its preserving activity against fungal contamination (the percentages are weight percent and relate to the total weight of the composition). For this purpose, the samples were contaminated with a fungal mix (including yeasts and molds) consisting of: • Aspergillus brasiliensis DS M 1988 • Rhodotorula mucilaginosa DSM 13621 • Yarrowia lipolytica DS M 8218
# To control the efficacy, following control compositions were tested: • “Reference”, consisting of only 10% by weight of propylene glycol in water • “Comparative 1” containing 10% by weight of propylene glycol and amide in the given concentration, but no 2-phenoxyethanol • […] in the given concentration, but no amide.
# The samples were inoculated with the fungal mix at day 0, 7 and 14 to obtain a cell density in the range of 1-3×10E+05 CFU/ml (CFU=colony forming units) in the test samples (compositions listed in the below table) and stored at 25° C. for 21 days.
# CFU was determined before re-inoculation at days 7 and 14, and on day 21.
# [2] = test system: fungal mix: Aspergillus brasiliensis DSM 1988, Rhodotorula mucilaginosa DSM 13621, Yarrowia lipolytica DSM 8218; test: Preservative activity in a manual dishwashing composition (MDW, pH 7.1) with 2.0% 2-phenoxyethanol against fungal mix (Example 1.3); conditions: for d7 [CFU/ml]: day 7; for d14 [CFU/ml]: day 14; for d21 [CFU/ml]: day 21
# Protocol: (§1) A manual dish wash detergent (MDW) of pH 7.1 containing the following components was used:
# The samples were contaminated with a fungal mix consisting of: • Aspergillus brasiliensis DSM 1988 • Rhodotorula mucilaginosa DSM 13621 • Yarrowia lipolytica DSM 8218
# The samples were inoculated with the fungal mix at day 0 and 7 to obtain 1-3×10E+05 CFU/ml inoculation in the test sample consisting of the above-defined dish wash detergent MDW and stored at 25° C. for 21 days. CFU was determined before re-inoculation at day 7, and on days 14 and 21.
# Any CFU value at d7, d14 or d21 obtained with a MDW sample of the invention containing 2-phenoxyethanol and amide (MDW+2.0% PE+1% of Amide) lower than the respective value of the “comparative 2” example (MDW+2.0% by weight of 2-phenoxyethanol) indicates a better performance of the inventive combination of 2-phenoxyethanol with the amide.
# [3] = test system: fungus Aspergillus brasiliensis DSM 1988; test: Preservative activity in an enzyme (mannanase) solution of pH 6 with 2-phenoxyethanol (Example 1.4); conditions: for d0 [CFU/ml]: day 0 (inoculation); for d2 [CFU/ml]: day 2; for d7 [CFU/ml]: day 7; for d14 [CFU/ml]: day 14; for d15 [CFU/ml]: day 15 (after re-inoculation); for d22 [CFU/ml]: day 22; for d29 [CFU/ml]: day 29
# Protocol: A enzyme solution of pH 6 containing the hydrolase mannanase of the following composition was used:
# The samples were contaminated with the fungus Aspergillus brasiliensis DSM 1988.
# The samples were inoculated with the fungus at day 0 and 15 to obtain 1-3×10E+05 CFU/ml inoculation in the test sample consisting of the above-defined enzyme solution and stored at 25° C. for 29 days. CFU was determined at days 0, 2, 7, 14, 15 (after re-inoculation), 22 and 29 (abbreviated d0, d2, d7, d14, d15, d22, d29).
# Any CFU value at d2, d7, d14, d22 or d29 obtained with an enzyme solution sample of the invention containing 2-phenoxyethanol and amide (enzyme solution+0.7% PE+0.07% of amide) lower than the respective value of the comparative example (enzyme solution+0.7% by weight of 2-phenoxyethanol) indicates a better performance of the inventive combination of 2-phenoxyethanol with the amide.
# The amide used was N,N-dimethyl-n-decanoyl amide (=n-decanoyl-N,N-dimethylamide).
# [4] = test system: bacterial mix: Escherichia coli DSM 1576, Alcaligenes faecalis DSM 13644, Pseudomonas aeruginosa ATCC 15442, Staphylococcus aureus ATCC 6538, Burkholderia …; test: Preservative activity in a manual dishwashing composition (MDW, pH 7.1) with 2.0% 2-phenoxyethanol against bacterial mix (Example 2.4); conditions: MDW + 2.0% PE, no amide (Comparative 2)
# Protocol: as §1
# The samples were contaminated with a bacterial mix consisting of: • Escherichia coli DSM 1576 • Alcaligenes faecalis DSM 13644 • Pseudomonas aeruginosa ATCC 15442 • Staphylococcus aureus ATCC 6538 • Burkholderia cepacia DSM 7288 • Pseudomonas putida DSM 12735
# The samples were inoculated with the bacterial mix at day 0 and 7 to obtain 10E+06 to 10E+07 CFU/ml inoculation in the test sample and stored at 25° C. for 21 days. CFU was determined before re-inoculation at day 7 and on days 14 and 21.
# Any CFU value at day 7 (d7), day 14 (d14) or day 21 (d21) obtained with a sample according to the invention containing 2-phenoxyethanol and amide (MDW+2.0% PE+x % Amide) lower than the respective value of the “comparative 2” example (MOW+2.0% by weight of 2-phenoxyethanol) indicates a better performance.
# [5] = test system: bacterial mix: Escherichia coli DSM 1576, Alcaligenes faecalis DSM 13644, Pseudomonas aeruginosa ATCC 15442, Staphylococcus aureus ATCC 6538, Burkholderia …; test: Preservative activity of a basic composition (10% PG in water, pH 7) with 4,4'-dichloro-2-hydroxydiphenyl ether (diclosan) against bacterial contamination (Example 2.2); conditions: day 7
# Protocol: An aqueous composition of pH 7 comprising 10% by weight of propyleneglycol (PG) as organic solvent, 0.015% by weight of 4,4′-dichloro-2-hydroxydiphenyl ether (diclosan) as antimicrobial and 0.04 or 0.1% by weight of the amides listed in the below table was tested for its preserving activity against bacterial contamination (the weight percentages relate to the total weight of the composition). For this purpose, the samples were contaminated with a bacterial mix consisting of: • Escherichia coli DSM 1576 • Alcaligenes faecalis DSM 13644 • Pseudomonas aeruginosa ATCC 15442 • Staphylococcus aureus ATCC 6538 • Burkholderia cepacia DSM 7288 • Pseudomonas putida DSM 12735
# The samples were inoculated with the bacterial mix at day 0 to obtain 10E+06 to 10E+07 CFU/ml inoculation in the test sample and stored at 25° C. for 7 days.
# CFU was determined at day 7.
# Any CFU value at day 7 (d7) obtained with a sample according to the invention containing diclosan and amide (10% PG+0.015% diclosan+Amide in water) lower than the respective value of the “comparative 3” example (10% by weight of propyleneglycol+0.015% by weight of 4,4′-dichloro-2-hydroxydiphenyl ether (diclosan) in water) indicates a better performance.
# [6] = MDW + 2.0% PE, no amide (Comparative 2)
# [7] = Enzyme solution + 0.7% PE, no amide (Comparative)
# [8] = MDW + 1.0% amide, no PE (Comparative 1)
# [9] = Enzyme solution + 0.7% PE + 0.07% amide
structure (smiles),measurement,setting,value
"OCCOc1ccccc1 [PE, 2-phenoxyethanol, reference compound]",d7 [CFU/ml],"[1]; 10% PG + 0.4% PE, no amide (Comparative 2), fungal mix inoculated at day 0, 7 and 14, day 7","10,000 CFU/ml"
same,d14 [CFU/ml],"[1]; 10% PG + 0.4% PE, no amide (Comparative 2), fungal mix inoculated at day 0, 7 and 14, day 14","16,000 CFU/ml"
same,d21 [CFU/ml],"[1]; 10% PG + 0.4% PE, no amide (Comparative 2), fungal mix inoculated at day 0, 7 and 14","38,500 CFU/ml"
same,d7 [CFU/ml],[2]; [6],"27,500 CFU/ml"
same,d14 [CFU/ml],[2]; [6],"22,000 CFU/ml"
same,d21 [CFU/ml],[2]; [6],"18,000 CFU/ml"
same,d0 [CFU/ml],[3]; [7],"110,000 CFU/ml"
same,d2 [CFU/ml],[3]; [7],"92,000 CFU/ml"
same,d7 [CFU/ml],[3]; [7],"29,000 CFU/ml"
same,d14 [CFU/ml],[3]; [7],"21,000 CFU/ml"
same,d15 [CFU/ml],[3]; [7],"300,000 CFU/ml"
same,d22 [CFU/ml],[3]; [7],"67,000 CFU/ml"
same,d29 [CFU/ml],[3]; [7],"100,000 CFU/ml"
same,d7 [CFU/ml],[4]; day 7,330 CFU/ml
same,d14 [CFU/ml],[4]; day 14,"2,800 CFU/ml"
same,d21 [CFU/ml],[4]; day 21,"38,500 CFU/ml"
"CCCCCCCCCC(=O)N(C)C [n-Decanoyl-N,N-dimethylamide]",d7 [CFU/ml],"[1]; 10% PG + 0.36% PE + 0.04% Amide in water, pH 7, fungal mix inoculated at day 0, 7 and 14 (1-3x10E+05 CFU/ml), day 7 before re-inoculation",<10 CFU/ml
same,d14 [CFU/ml],"[1]; 10% PG + 0.36% PE + 0.04% Amide in water, pH 7, fungal mix inoculated at day 0, 7 and 14, day 14 before re-inoculation",<10 CFU/ml
same,d21 [CFU/ml],"[1]; 10% PG + 0.36% PE + 0.04% Amide in water, pH 7, fungal mix inoculated at day 0, 7 and 14",<10 CFU/ml
same,d7 [CFU/ml],[2]; [8],"50,500 CFU/ml"
same,d14 [CFU/ml],[2]; [8],"97,500 CFU/ml"
same,d21 [CFU/ml],[2]; [8],"83,000 CFU/ml"
same,d7 [CFU/ml],[2]; MDW + 2.0% PE + 1.0% amide,"19,000 CFU/ml"
same,d14 [CFU/ml],[2]; MDW + 2.0% PE + 1.0% amide,"10,000 CFU/ml"
same,d21 [CFU/ml],[2]; MDW + 2.0% PE + 1.0% amide,"5,000 CFU/ml"
same,d0 [CFU/ml],"[3]; Enzyme solution + 0.7% PE + 0.07% amide (N,N-dimethyl-n-decanoyl amide)","110,000 CFU/ml"
same,d2 [CFU/ml],[3]; [9],"80,000 CFU/ml"
same,d7 [CFU/ml],[3]; [9],240 CFU/ml
same,d14 [CFU/ml],[3]; [9],30 CFU/ml
same,d15 [CFU/ml],[3]; [9],"300,000 CFU/ml"
same,d22 [CFU/ml],[3]; [9],"14,000 CFU/ml"
same,d29 [CFU/ml],[3]; [9],70 CFU/ml
same,d7 [CFU/ml],[5]; 10% PG + 0.015% diclosan + 0.1% amide,"43,000 CFU/ml"
same,d7 [CFU/ml],"[5]; 10% PG + 0.1% amide, no diclosan (Comparative 1b)",">100,000 CFU/ml"
